# Experimental data as given in patent US8785499B2 (priority 2009, dated 2014).
# How the values were obtained:
# [1] = test system: E. coli K-12 BW25113 (ΔnadA); assay: microbe, parasite or virus in culture; type: cell-based, Escherichia coli; conditions: for MIC50: Escherichia coli, BW25113, read-out: MIC50 E. coli
# ecNadD [2] = biological target: T1, ecNadD (Escherichia coli (strain K12), UniProt P0A752); assay: biochemical; conditions: apparent value
# [3] = test system: E. coli ΔnadA, nadD+ (overexpressing NadD); assay: Antibacterial assay: on-target versus off-target activity (NadD overexpression vs gapA control); type: cell-based, Escherichia coli; conditions: E. coli overexpressing nadD vs gapA control strain
# B. subtilis 168 = assay: microbe, parasite or virus in culture; type: cell-based; conditions: Bacillus subtilis, 168, read-out: MIC50 B. subt
# B. anthracis sterne = assay: microbe, parasite or virus in culture; type: cell-based; conditions: Bacillus anthracis, read-out: MIC50 B. anth
# baNadD = baNadD (Bacillus anthracis, UniProt C3L5T6); assay: biochemical; type: biochemical; conditions: for inhibition at 50 µM: read-out: INHIBITION (%) B. anthracis
# baNadD, sequence (C3L5T6 whole entry, looked up): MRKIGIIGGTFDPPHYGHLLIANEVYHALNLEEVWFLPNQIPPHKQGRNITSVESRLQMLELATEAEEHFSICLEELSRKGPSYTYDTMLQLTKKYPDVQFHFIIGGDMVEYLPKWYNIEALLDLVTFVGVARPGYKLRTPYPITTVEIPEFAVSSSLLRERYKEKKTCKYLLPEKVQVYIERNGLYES
# ecNadD [4] = biological target: T1, ecNadD; assay: biochemical; type: biochemical
SMILES,[…]. anthracis (baNadD),[…]. coli (ecNadD [4]),further results
O=C(CCC(=O)Nc1cccc(Cl)c1)N/N=C/c1c2ccccc2cc2ccccc12 [01_02],–,–,"MIC50 [1]: > 80 µM; Ki (ecNadD [2]; substrate ATP varied, 0.5 mM NaMN fixed): 5 ± 1 µM; Ki (ecNadD [2]; substrate NaMN varied, 0.5 mM ATP fixed): 8 ± 3 µM"
O=C(CCCC(=O)Nc1ccc(Br)cc1)N/N=C/c1c2ccccc2cc2ccccc12 [01_03],–,–,MIC50 [1]: > 80 µM; effect of NadD overexpression on antibacterial activity (on-target vs off-target) [3]: partially or totally suppresses action; MIC50 (B. subtilis 168): 10 µM; MIC50 (B. anthracis sterne): 15 µM
Nc1c(C(=O)Nc2cccc(F)c2)sc2nc(-c3cccs3)ccc12 [03_02],–,–,MIC50 [1]: 160 µM; MIC50 (B. subtilis 168): 40 µM; inhibition at 50 µM (baNadD): 100%; MIC50 (B. anthracis sterne): 80 µM
Nc1c(C(=O)Nc2cc(Cl)ccc2Cl)sc2nc(-c3cccs3)ccc12 [03_05],–,–,MIC50 [1]: 80 µM; MIC50 (B. subtilis 168): 10 µM; MIC50 (B. anthracis sterne): 10 µM
Nc1c(C(=O)Nc2ccc(Cl)cc2F)sc2nc(-c3cccs3)ccc12 [03_15],–,–,MIC50 [1]: 160 µM; effect of NadD overexpression on antibacterial activity (on-target vs off-target) [3]: partially or totally suppresses action; MIC50 (B. subtilis 168): 10 µM; MIC50 (B. anthracis sterne): 10 µM
Nc1c(C(=O)Nc2cccc(Cl)c2)sc2nc(-c3ccncc3)ccc12 [03_17],–,–,MIC50 [1]: 80 µM; MIC50 (B. subtilis 168): > 160 µM; inhibition at 50 µM (baNadD): 64%; MIC50 (B. anthracis sterne): > 160 µM
Nc1c(C(=O)Nc2ccc(F)cc2Cl)sc2nc(-c3ccc(F)cc3)ccc12 [03_23],–,–,antibacterial activity against E. coli (qualitative) [1]: relatively strong antibacterial activity; MIC50 [1]: 40 µM; MIC50 (B. subtilis 168): 80 µM; MIC50 (B. anthracis sterne): 80 µM
COC(=O)c1ccc(N/C=C2\C(=O)Nc3ccccc32)cc1 [15_11],–,–,MIC50 [1]: < 100 µM; MIC50 (B. subtilis 168): < 50 µM
O=C(N/N=C/c1ccc(Br)cc1)c1[nH]ncc1Br [compound 256],0%,0%,–
COC(=O)c1ccc(NC(=O)CNc2ccc(C(=O)O)cc2)cc1 [compound 258],0%,0%,–
Cc1ccc(C2C(C#N)=C(N)Oc3ncnc(O)c32)cc1 (stereo not shown) [compound 259],0%,0%,–
O=C(NCCNc1ccc([N+](=O)[O-])cc1)c1ccccc1Br [compound 260],0%,0%,–
O=C(O)CC(NC(=O)OCc1ccccc1)c1ccccc1 (stereo not shown) [compound 261],24%,0%,–
Cc1nn(-c2ccc([N+](=O)[O-])cc2)c(Cl)c1S(=O)(=O)O [compound 262],5%,0%,–
Nc1nnc(SCC(=O)Nc2ccc(Cl)c(Cl)c2)s1 [compound 263],0%,0%,–
Cc1ccc([N+](=O)[O-])cc1NS(=O)(=O)c1ccc(F)cc1 [compound 264],0%,0%,–
Cc1noc(C)c1S(=O)(=O)Nc1ccc(Br)cc1 [compound 265],4%,0%,–
Cc1nnc(N/N=C/c2ccccc2C(=O)O)nc1O [compound 267],4%,0%,–
NC(N)=NS(=O)(=O)c1ccc(NC(=O)c2cccc([N+](=O)[O-])c2)cc1 [compound 268],0%,0%,–
NS(=O)(=O)c1cc(C(=O)OCC(=O)c2ccccc2)ccc1Cl [compound 269],22%,0%,–
O=C(O)c1ccc(CSCc2ccccc2)o1 [compound 270],21%,0%,–
COC(=O)CSc1nnc(-c2ccc(Cl)cc2Cl)o1 [compound 274],0%,0%,–
O=C(O)c1ccc(-c2ccc(C(=O)O)c(C(=O)O)c2)cc1C(=O)O [compound 275],0%,0%,–
O=C(O)c1ccc2nc(-c3ccc(O)cc3)sc2c1 [compound 277],0%,0%,–

SMILES,[…]. anthracis (baNadD),[…]. coli (ecNadD [4]),further results
Nc1nnnn1/N=C/c1ccccc1 [compound 278],0%,0%,–
O=C(Nc1ccc(Cl)cn1)c1cccnc1 [compound 279],0%,0%,–
O=C(Cn1cnc2ccccc2c1=O)Nc1cccc(C(=O)O)c1 [compound 280],0%,0%,–
CC(=O)c1ccc(NS(=O)(=O)c2ccc(N)cc2)cc1 [compound 283],0%,0%,–
O=S(=O)(Nc1nc2ccccc2s1)c1ccc(Cl)s1 [compound 284],7%,0%,–
Cn1c(SCC(N)=O)nnc1-c1ccc(Br)cc1 [compound 286],0%,0%,–
Nc1c(C(=O)Nc2ccc(F)c(F)c2)sc2nc(-c3ccncc3)ccc12 [compound 287],0%,0%,–
Nc1nc(-c2ccc(Cl)c([N+](=O)[O-])c2)n[nH]1 [compound 288],0%,0%,–
O=C(CNS(=O)(=O)c1ccc(Br)s1)NCCC1=CCCCC1 [compound 289],4%,0%,–
CC(=O)O/C(=C\c1cn(C(C)=O)c2ccccc12)C(=O)O [compound 291],0%,0%,–
O=S(=O)(N/N=C/c1cccc(OC2CSC2)c1)c1ccccc1 [compound 292],0%,0%,–
O=C(O)CSc1cccc(SCC(=O)O)c1 [compound 293],5%,0%,–
O=C(NCc1ccccn1)c1ccc(Cl)cc1Cl [compound 294],0%,0%,–
COc1ccc(-c2noc(COc3ccc(Cl)cc3Cl)n2)cc1 [compound 295],11%,0%,–
O=S(=O)(Nc1ccc(Cl)cc1)c1ccc(Cl)s1 [compound 297],0%,0%,–
CCn1c(CNc2ccc(F)cc2)nnc1SCC(N)=O [compound 298],0%,0%,–
COc1ccccc1OCc1nc(-c2ccc(Cl)cc2Cl)no1 [compound 299],1%,0%,–
CC(=O)NS(=O)(=O)c1ccc(/N=C2\C(=O)Nc3ccccc32)cc1 [compound 300],0%,0%,–
C=CCNC(=O)c1cc(-c2ccc(Br)cc2)on1 [compound 301],0%,0%,–
O=C(CCN1C(=O)c2ccccc2C1=O)NCc1ccncc1 [compound 302],0%,0%,–
Clc1ccc(CNc2nc[nH]n2)cc1 [compound 305],0%,0%,–
CSc1cccc(NS(=O)(=O)c2ccc(Cl)cc2)c1 [compound 306],0%,0%,–
O=S(=O)(NCCc1ccccc1)c1ccc(Br)s1 [compound 307],0%,0%,–
